Results as given in ChEMBL document CHEMBL1201862, “PubChem BioAssay data set” (2004).
Activity calls are given as the source filed them.

Columns and labels:
Beta-galactosidase = Beta-galactosidase (Escherichia coli, UniProt Q8VNN2); test: Dose response counterscreen for EBI2 assay utilizing the enzyme, b-galactosidase.; format: functional
Protein Tat = target: T1, Protein Tat (Human immunodeficiency virus type 1 group M subtype B (isolate HXB2)(HIV-1), UniProt P04608); format: functional;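 further: tat binding to TAR RNA read out by fluorescence polarization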
T1 sequence (P04608 whole entry): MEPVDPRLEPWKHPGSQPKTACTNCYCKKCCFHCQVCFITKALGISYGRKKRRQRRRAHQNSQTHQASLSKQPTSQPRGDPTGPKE

[1] = target: T2, Long-chain-fatty-acid--AMP ligase FadD28 (Mycobacterium tuberculosis, UniProt P9WQ59); test: Fluorescence polarization aasay to screen for inhibitors that compete for the binding of FadD28 to a bisubstrate Measured in Biochemical System Using Plate Reader - 2147-01_Inhibitor_Dose_CherryPick_Activity.; format: functional, Mycobacterium tuberculosis H37Rv
T2 sequence (P9WQ59 whole entry): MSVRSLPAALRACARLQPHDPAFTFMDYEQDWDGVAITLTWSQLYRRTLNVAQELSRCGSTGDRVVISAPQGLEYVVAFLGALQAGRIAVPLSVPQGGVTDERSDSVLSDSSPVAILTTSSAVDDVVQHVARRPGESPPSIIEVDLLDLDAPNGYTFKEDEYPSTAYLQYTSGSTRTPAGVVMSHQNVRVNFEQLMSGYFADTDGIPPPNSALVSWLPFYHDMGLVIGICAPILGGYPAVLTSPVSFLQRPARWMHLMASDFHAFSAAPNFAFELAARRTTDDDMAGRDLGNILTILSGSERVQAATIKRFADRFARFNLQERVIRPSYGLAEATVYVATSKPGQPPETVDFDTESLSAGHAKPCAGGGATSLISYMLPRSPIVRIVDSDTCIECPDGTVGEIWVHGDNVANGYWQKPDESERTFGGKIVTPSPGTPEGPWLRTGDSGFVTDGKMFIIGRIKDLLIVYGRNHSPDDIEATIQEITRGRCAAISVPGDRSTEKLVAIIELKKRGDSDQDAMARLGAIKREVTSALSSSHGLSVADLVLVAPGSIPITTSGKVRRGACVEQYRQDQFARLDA

Paired box protein Pax-8 = Paired box protein Pax-8 (Homo sapiens, UniProt Q06710); test: PAX8 transcriptional activity inhibition in RMG-I – RMG-I cells, luciferase, cherry-pick, dose response (AID 687027); format: functional, cell-based;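 further: luciferase reporter driven by Pax8 target thyroperoxidase promoter measured by SteadyGlo luminescence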
Sequence of Paired box protein Pax-8 (Q06710 whole entry): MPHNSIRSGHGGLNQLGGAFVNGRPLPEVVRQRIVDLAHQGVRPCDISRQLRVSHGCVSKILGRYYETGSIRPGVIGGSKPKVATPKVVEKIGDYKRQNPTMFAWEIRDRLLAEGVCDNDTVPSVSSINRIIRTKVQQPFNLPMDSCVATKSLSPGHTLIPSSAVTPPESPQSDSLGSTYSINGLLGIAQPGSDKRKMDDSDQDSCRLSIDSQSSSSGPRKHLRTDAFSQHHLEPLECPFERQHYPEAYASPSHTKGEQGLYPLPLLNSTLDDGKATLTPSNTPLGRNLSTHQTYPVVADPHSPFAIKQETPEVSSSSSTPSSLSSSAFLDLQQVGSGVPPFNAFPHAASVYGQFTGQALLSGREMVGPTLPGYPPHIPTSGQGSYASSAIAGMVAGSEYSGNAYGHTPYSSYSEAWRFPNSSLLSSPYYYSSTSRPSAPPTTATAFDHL

[2] = IGROV1 cell killing – plate reader, dry powder samples, PAX8 inhibitor project, dose response (AID 743043); format: functional, cell-based; details: IGROV-1
[3] = OVCAR8 cell viability loss – plate reader, dry powder samples, PAX8 project, dose response (AID 743197); format: functional, cell-based; details: OVCAR-8
[4] = T. cruzi growth inhibition in host cells, dose response, cell-based, plate reader, dry powder, set 2 (AID 652275); format: functional
[5] = target: T3, RNA-binding protein pos-1 (Caenorhabditis elegans, UniProt G5EF15); test: disruptors of C. elegans POS-1 RNA interaction – biochemical, fluorescence polarization, dose response (AID 1964);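 further: purified POS-1 fused to maltose binding protein made in E. coli; potency of compounds blocking POS-1 binding to fluorescent RNA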
T3 sequence (G5EF15 whole entry): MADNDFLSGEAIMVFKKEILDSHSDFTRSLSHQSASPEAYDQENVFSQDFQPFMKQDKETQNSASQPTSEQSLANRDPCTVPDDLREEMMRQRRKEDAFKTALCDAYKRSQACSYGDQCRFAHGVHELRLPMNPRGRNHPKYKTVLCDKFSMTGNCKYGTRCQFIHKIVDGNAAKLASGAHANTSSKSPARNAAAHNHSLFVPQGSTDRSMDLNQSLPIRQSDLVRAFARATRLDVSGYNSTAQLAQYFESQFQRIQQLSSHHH

[6] = target: T4, Zinc finger protein mex-5 (Caenorhabditis elegans, UniProt Q9XUB2); test: potency of MEX-5 RNA-binding blockers – biochemical, C. elegans, fluorescence polarization, dose response (AID 1960)
T4 sequence (Q9XUB2 whole entry): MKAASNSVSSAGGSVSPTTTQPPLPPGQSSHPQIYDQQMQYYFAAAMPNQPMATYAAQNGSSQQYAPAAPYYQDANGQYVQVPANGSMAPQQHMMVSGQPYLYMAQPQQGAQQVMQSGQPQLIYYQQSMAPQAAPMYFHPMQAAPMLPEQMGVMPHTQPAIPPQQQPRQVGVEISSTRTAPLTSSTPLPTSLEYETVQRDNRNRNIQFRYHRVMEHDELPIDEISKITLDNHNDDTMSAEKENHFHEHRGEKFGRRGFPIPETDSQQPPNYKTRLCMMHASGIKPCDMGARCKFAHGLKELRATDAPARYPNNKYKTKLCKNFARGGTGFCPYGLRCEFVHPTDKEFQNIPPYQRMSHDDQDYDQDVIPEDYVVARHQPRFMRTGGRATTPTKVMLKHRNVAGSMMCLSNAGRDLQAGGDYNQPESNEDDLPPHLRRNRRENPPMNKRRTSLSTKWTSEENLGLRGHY

Large T antigen = Large T antigen (Simian virus 40, UniProt P03070); format: functional, Betapolyomavirus macacae;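 further: Confirmatory-stage PubChem screen for compounds that inhibit SV40 T antigen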
Sequence of Large T antigen (P03070 whole entry): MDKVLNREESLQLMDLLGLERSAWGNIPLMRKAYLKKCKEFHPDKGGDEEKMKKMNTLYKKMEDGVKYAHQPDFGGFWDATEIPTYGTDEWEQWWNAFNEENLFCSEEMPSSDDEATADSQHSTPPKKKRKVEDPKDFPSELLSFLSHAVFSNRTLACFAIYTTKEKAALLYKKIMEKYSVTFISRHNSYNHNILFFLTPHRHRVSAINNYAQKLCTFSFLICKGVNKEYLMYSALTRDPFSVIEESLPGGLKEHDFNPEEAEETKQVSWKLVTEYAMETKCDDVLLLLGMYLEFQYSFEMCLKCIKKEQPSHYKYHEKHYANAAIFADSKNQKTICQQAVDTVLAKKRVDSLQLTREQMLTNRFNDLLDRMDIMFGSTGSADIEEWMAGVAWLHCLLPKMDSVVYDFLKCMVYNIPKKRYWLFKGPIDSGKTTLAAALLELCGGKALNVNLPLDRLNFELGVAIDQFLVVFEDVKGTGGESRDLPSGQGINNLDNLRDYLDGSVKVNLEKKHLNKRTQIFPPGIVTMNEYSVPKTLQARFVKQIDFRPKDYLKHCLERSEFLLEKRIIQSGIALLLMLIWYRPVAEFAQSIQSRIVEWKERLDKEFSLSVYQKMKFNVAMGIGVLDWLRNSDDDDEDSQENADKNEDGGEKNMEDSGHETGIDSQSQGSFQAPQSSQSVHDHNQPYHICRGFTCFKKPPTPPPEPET

[7] = target: T5, Small ubiquitin-related modifier 1 (Homo sapiens, UniProt P63165); test: SUMO1 protein interaction blockers, potency – biochemical, fluorescence polarization, uHTS hits, dose response (AID 624382); format: functional; details: read-out: IC50_Mean
T5 sequence (P63165 whole entry): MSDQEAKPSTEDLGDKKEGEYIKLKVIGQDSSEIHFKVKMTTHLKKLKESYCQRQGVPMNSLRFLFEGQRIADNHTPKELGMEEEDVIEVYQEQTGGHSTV

[8] = target: T5, Small ubiquitin-related modifier 1; test: SUMO1 protein-protein binding blockers, potency – biochemical, FRET, dose response (AID 624383); format: functional; details: read-out: IC50_Mean
Caspase-6 = target: T6, Caspase-6 (Homo sapiens, UniProt P55212); test: inhibition of CASP6 peptide cleavage – biochemical, VEID-R110 fluorescence, cherry-pick, dose response (AID 720632)
T6 sequence (P55212 whole entry): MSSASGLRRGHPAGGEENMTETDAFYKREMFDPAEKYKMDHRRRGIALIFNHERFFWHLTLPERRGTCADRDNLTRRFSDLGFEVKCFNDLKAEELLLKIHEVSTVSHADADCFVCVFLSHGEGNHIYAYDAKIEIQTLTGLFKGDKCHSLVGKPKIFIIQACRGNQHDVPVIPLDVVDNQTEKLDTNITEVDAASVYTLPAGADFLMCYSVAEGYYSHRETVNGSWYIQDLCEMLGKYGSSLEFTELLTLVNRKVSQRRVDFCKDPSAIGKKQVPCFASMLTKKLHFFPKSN

[9] = IC50 of insulin release inhibition, rat insulinoma INS-1E line, 5 mM glucose, cell-based (AID 1117331); format: functional
[10] = blockers of HIV-1 envelope-mediated cell-cell fusion – cherry-pick, dose response (AID 652057); format: functional, cell-based
[11] = viability loss in CEM21 cells – cell-based, CellTiter-Glo luminescence, cherry-picked, cytotoxicity control for viral fusion inhibitor project, dose response (AID 652042); format: functional;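 further: potency for signal decrease meaning cytotoxicity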
[12] = off-target signal loss in HeLa-CEM21 co-culture – HeLa F-luc CTL cells, cherry-picked, counter-screen for HIV-1 Env fusion inhibitor project, dose response (AID 652040); format: functional, cell-based;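 further: potency for signal decrease marking cytotoxic or nonspecific inhibition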
[13] = blockers of HIV-1 ZM109 envelope-driven cell-cell fusion – HeLa effector, CEM target cells, luciferase, cherry-pick, dose response (AID 652058); format: functional, cell-based;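 further: luciferase signal from HIV-1 Env mediated cell-cell fusion of effector and target cells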
[14] = HIV-1 AD8 envelope cell-cell fusion blockers – cherry-pick, dose response (AID 652062); format: functional, cell-based;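 further: luciferase signal from cell-cell fusion driven by HIV-1 clade B AD8 Env; potency is for inhibitors of fusion seen as a drop in luminescence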
[15] = A549 cell cytotoxicity, dose response, cytotoxicity control, plate reader, cherry-pick, antagonist series (AID 743412); format: functional, cell-based
[16] = toxicity toward HepG2 liver cells – cell-based, plate reader, cherry-pick, antagonist series, cytotoxicity control, dose response (AID 743416); format: functional
[17] = blockers of bursicon-stimulated LGR2 cAMP reporter – cell-based, HEK293, CRE-luciferase reporter, cherry pick, set 2, dose response (AID 743343); format: functional;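 further: transfected cells were stimulated with diluted bursicon conditioned medium after compound addition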
[18] = blockade of melanocortin 4 receptor signaling – cell-based, plate reader, cherry pick, counter-screen for LGR2 antagonist project, dose response (AID 743444); format: functional;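 further: transfected HEK 293 cells stimulated with alpha-MSH peptide; potency of inhibitors of the alpha-MSH evoked signal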
[19] = viability loss in HEK293 cells – cell-based, plate reader, cherry-picked samples, cytotoxicity control, dose response (AID 743446); format: functional
[20] = A2780 cell killing – plate reader, dry powder samples, cytotoxicity control, dose response (AID 743046); format: functional, cell-based
[21] = OVCAR-3 cell viability loss – plate reader, dry powder samples, PAX8 inhibitor project, dose response (AID 743044); format: functional, cell-based

Sequence of Beta-galactosidase (Q8VNN2 whole entry): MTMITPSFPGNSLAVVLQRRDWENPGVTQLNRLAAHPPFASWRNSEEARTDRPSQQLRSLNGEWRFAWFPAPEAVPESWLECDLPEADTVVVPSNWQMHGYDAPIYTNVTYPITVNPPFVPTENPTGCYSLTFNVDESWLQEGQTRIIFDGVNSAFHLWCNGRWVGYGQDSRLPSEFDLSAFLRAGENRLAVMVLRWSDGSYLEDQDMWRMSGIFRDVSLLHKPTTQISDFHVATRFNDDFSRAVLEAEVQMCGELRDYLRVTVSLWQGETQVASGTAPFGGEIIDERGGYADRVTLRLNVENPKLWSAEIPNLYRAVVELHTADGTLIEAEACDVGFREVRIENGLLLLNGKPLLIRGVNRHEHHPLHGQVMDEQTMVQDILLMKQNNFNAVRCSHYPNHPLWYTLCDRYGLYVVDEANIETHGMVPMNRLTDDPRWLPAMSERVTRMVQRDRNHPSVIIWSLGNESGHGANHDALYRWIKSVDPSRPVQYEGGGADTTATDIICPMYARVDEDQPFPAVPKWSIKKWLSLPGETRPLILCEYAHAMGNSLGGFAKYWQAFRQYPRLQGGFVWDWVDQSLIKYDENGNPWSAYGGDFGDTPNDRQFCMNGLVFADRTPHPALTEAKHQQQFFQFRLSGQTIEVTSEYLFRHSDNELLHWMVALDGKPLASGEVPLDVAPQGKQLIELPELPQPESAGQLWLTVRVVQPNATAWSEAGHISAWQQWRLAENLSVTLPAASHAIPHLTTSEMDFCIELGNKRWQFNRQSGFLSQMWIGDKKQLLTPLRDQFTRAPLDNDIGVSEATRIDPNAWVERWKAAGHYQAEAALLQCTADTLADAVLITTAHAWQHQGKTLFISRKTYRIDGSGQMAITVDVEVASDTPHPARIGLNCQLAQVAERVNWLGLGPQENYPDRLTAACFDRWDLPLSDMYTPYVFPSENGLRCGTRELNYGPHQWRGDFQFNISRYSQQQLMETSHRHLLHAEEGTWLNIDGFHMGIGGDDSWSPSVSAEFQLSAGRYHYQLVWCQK

In the case of `CCN1CCN(c2ccc(S(=O)(=O)N3CCOCC3)cc2NC(=O)/C=C/c2ccc(C)cc2)CC1`, the IC50 (Beta-galactosidase) is reported as > 80 µM (inactive).

With `Cc1nccn1CC(=O)N/N=C/c1ccc(O)c(O)c1` the IC50 (Protein Tat) was 39 µM (inconclusive).

For `COc1ccc(C(=O)NCc2ccc(C)cc2)cc1S(=O)(=O)N1CCOCC1`, the AC50 [1] was 64.8 µM (active).

With `COc1cccc(CNC(=O)COc2cc(O)c3c(c2)OC(C)(C)CC3=O)c1` the AC50 [1] was 79.7 µM (active).

With `Cc1cccc(S(=O)(=O)N2CC[C@@H]3[C@H]2c2cc(C4=CCCCC4)ccc2N[C@@H]3CO)c1` the AC50 (Paired box protein Pax-8) was 10.8 µM (active), the AC50 [2] was 55.6 µM (active) and the AC50 [3] was > 70 µM (inactive).

With `O=C(Cc1ccccn1)N1CCCCN2[C@@H](CO)[C@H](c3ccc(-c4ccccc4)cc3)[C@@H]2C1` the AC50 [4] was 0.551 µM (active).

For `COc1cc(/C=C2\CCc3c2nc2ccccc2c3C(=O)O)cc(OC)c1OC`, the EC50 [5] was 94 µM (active), the EC50 [6] was 34.8 µM (active) and the IC50 (Large T antigen) was 35 µM (active). The IC50 [7] was > 66.6 µM (inactive), the IC50 [8] was 12.5 µM (active) and the AC50 (Caspase-6) was 6.8 µM (active).

With `CN1C(=O)CC[C@H]1c1cccnc1` [COTININE] the IC50 [9] was > 33.3 µM (inactive).

With `Cc1cc(C(C)(C)C)oc1C(=O)N(CC(=O)NC1CCCC1)Cc1ccc(Cl)cc1` the AC50 [10] was 6.45 µM (active), the AC50 [11] was 49.5 µM (active) and the AC50 [12] was > 70 µM (inactive).

In the case of `CC(C)c1ccc(OCCCN2CCC(C(O)(c3ccccc3)c3ccccc3)CC2)cc1`, the AC50 [10] is reported as 9.63 µM (active), the AC50 [11] is reported as 7.21 µM (active) and the AC50 [13] is reported as 9.88 µM (active). The AC50 [12] was 7.88 µM (active), the AC50 [14] was 9.48 µM (active) and the AC50 [15] was 9.56 µM (active). For the same compound, the AC50 [16] was 7.6 µM (active), the AC50 [17] was 6.8 µM (active) and the AC50 [18] was 5.65 µM (active). The AC50 [19] was 14 µM (active).

In the case of `O=C(C[C@@H]1CC[C@@H]2[C@H](COC[C@@H](O)CN2C(=O)Nc2ccc(Cl)c(Cl)c2)O1)NCc1ccc(Cl)cc1`, the AC50 (Paired box protein Pax-8) is reported as 8.87 µM (active), the AC50 [20] is reported as 60 µM (active) and the AC50 [21] is reported as 33.5 µM (active). The AC50 [2] was 33.9 µM (active) and the AC50 [3] was 53.3 µM (active).
